According to patent publication US20090117203A1, “KIT FOR CANCER TREATMENT AND PHARMACEUTICAL COMPOSITION FOR CANCER TREATMENT” (TMRC Co., Ltd., priority 2006, published 2009):

What was measured:
human liver cancer JHH-7 = assay: Growth suppression of human liver cancer JHH-7 transplanted in nude mice; assay type: in vivo; conditions: for tumor volume: nude mice, TM-411 3 mg/kg oral daily 20 days, 5-FU 15.2 mg/kg oral 8th to 12th day; for effect on suppression of the growth of the tumor (in words): nude mice transplanted with JHH-7, same doses as Table 2
Method: Fluorouracil (hereinafter, abbreviated to “5-FU”), which is a general name of that manufactured by Kyowa Hakko Kogyo Co., Ltd., was used as a chemotherapeutic agent.
A tumor cell mass of human liver cancer JHH-7 was subcutaneously transplanted in dorsal portions of 6-week-old BALB/cAJcl-nu nude mice through a trocar. When the tumor volume reached 100 to 300 mm^3, the administration was started. TM-411 was orally administered once a day at a dose of 3 mg/kg for 20 days every day. 5-FU was orally administered at a dose of 15.2 mg/kg for 5 days every day from the 8th day to the 12th day.
(§1) In a combination use group of TM-411 and 5-FU, each agent was administered at the same amount and the same administration route as those in the single administration. Tumor diameters were measured every day from the day of the start of the administration (the 1st day) to the next day of the completion of the administration (the 21st day), and effect on suppression of the growth was investigated. […] In a control group, physiological saline was administered at the same amount and the same administration route as those in the single administration of each agent.

human liver cancer HePG2 = assay: Growth suppression of human liver cancer HePG2 transplanted in nude mice; assay type: in vivo; conditions: for tumor volume: nude mice, TM-411 1 mg/kg oral daily 20 days, ADR 5 mg/kg i.v. once on first day; for effect on suppression of the growth of the tumor (in words): nude mice transplanted with HePG2, same doses as Table 3
Method: Doxorubicin (hereinafter, abbreviated to “ADR”), which is a general name of that manufactured by Kyowa Hakko Kogyo Co., Ltd., was used as a chemotherapeutic agent.
About 2×2×2 mm of a tumor cell mass of human liver cancer HePG2 was subcutaneously transplanted in dorsal portions of 6-week-old BALB/cAJcl-nu nude mice through a trocar. The administration was started on the day (defined as the first day) two days after the transplantation. TM-411 was orally administered at a dose of 1 mg/kg for 20 days every day from the first day. ADR was intravenously administered at a dose of 5 mg/kg once on the first day.
as §1, with “ADR,” for “5-FU,”, “the” for “the next”, “20th” for “21st”

[1] = system: human multiple myeloma U266; assay: Blood human IgE in NOG mice transplanted with human multiple myeloma U266; assay type: in vivo; conditions: for effect on blood concentration of human IgE (in words): NOG mice transplanted with U266; for Blood IgE level / Suppression ratio (blood IgE): NOG mice, 6 weeks after transplantation of U266
Method: Prednisolone (hereinafter, abbreviated to “PSL”), which is a general name of that manufactured by Shionogi & Co., Ltd., was used as a chemotherapeutic agent.
Seven-week-old NOD/SCID/γc^null (NOG) mice were divided into five groups of ten mice each (nine mice only in a control group), and […] cells of multiple myeloma cell line U266 were transplanted to each mouse via tail vein injection (the 0th day). The first group was used as a non-treated control group; in the second group, 1 mg/kg of TM-411 was orally administered for 28 days from the first day; in the third group, 3 mg/kg of TM-411 was orally administered for 28 days from the first day; in the fourth group, 7.5 mg/kg of PSL was orally administered for 8 days from the 21st day; and in the fifth group, 1 mg/kg of TM-411 was orally administered for 28 days from the first day and 7.5 mg/kg of PSL was orally administered in addition to the TM-411 for 8 days from the 21st day. Blood concentration of human IgE was measured 6 weeks after the transplantation of U266.

[2] = system: human breast cancer Br-10; assay: Growth suppression of human breast cancer Br-10 transplanted in nude mice; assay type: in vivo, mouse; conditions: for tumor volume: nude mice, TM-411 1 mg/kg oral daily 28 days, DXL 7.5 mg/kg i.v. every 4 days three times; for effect on suppression of the growth of the tumor (in words): nude mice transplanted with Br-10, same doses as Table 1
From the text: Tamibarotene (hereinafter, simply abbreviated to “TM-411”) was used as a synthetic retinoid and was also used in the following other Examples. Taxotere (hereinafter, abbreviated to “DXL”), which is a general name of that manufactured by sanofi-aventis K.K., was used as a chemotherapeutic agent.
A tumor cell mass of human breast cancer Br-10 was subcutaneously transplanted in dorsal portions of 6-week-old BALB/cAJcl-nu nude mice through a trocar. When the tumor volume reached 100 to 300 mm^3, the administration was started. TM-411 was orally administered once a day at a dose of 1 mg/kg for 28 days every day. DXL was intravenously administered from the first day at a dose of 7.5 mg/kg every 4 days three times.
as §1, with “DXL,” for “5-FU,”, “29th” for “21st”

[3] = PSL 7.5 mg/kg oral 8 days from 21st day

Compound | tumor volume (human liver cancer JHH-7; 1st day) [mm^3] | tumor volume (human liver cancer JHH-7; 4th day) [mm^3] | tumor volume (human liver cancer JHH-7; 7th day) [mm^3] | tumor volume (human liver cancer JHH-7; 11th day) [mm^3] | tumor volume (human liver cancer JHH-7; 14th day) [mm^3] | tumor volume (human liver cancer JHH-7; 18th day) [mm^3] | tumor volume (human liver cancer JHH-7; 21st day) [mm^3] | effect on suppression of the growth of the tumor (in words) (human liver cancer JHH-7) | tumor volume (human liver cancer HePG2; 3rd day) [mm^3] | tumor volume (human liver cancer HePG2; 7th day) [mm^3] | tumor volume (human liver cancer HePG2; 9th day) [mm^3] | tumor volume (human liver cancer HePG2; 11th day) [mm^3] | tumor volume (human liver cancer HePG2; 13th day) [mm^3] | tumor volume (human liver cancer HePG2; 15th day) [mm^3] | tumor volume (human liver cancer HePG2; 17th day) [mm^3] | tumor volume (human liver cancer HePG2; 20th day) [mm^3] | effect on suppression of the growth of the tumor (in words) (human liver cancer HePG2) | effect on blood concentration of human IgE (in words) [1] | tumor volume ([2]; 1st day) [mm^3] | tumor volume ([2]; 5th day) [mm^3] | also measured
O=c1[nH]cc(F)c(=O)[nH]1 [5-FU, Fluorouracil] | 126.6 | 193.8 | 291.6 | 496.6 | 697.5 | 1071 | 1408 | suppressed |  |  |  |  |  |  |  |  |  |  |  |  | 
COc1cccc2c1C(=O)c1c(O)c3c(c(O)c1C2=O)C[C@@](O)(C(=O)CO)C[C@@H]3O[C@H]1C[C@H](N)[C@H](O)[C@H](C)O1 [ADR, Doxorubicin] |  |  |  |  |  |  |  |  | 4.0 | 18.8 | 45.5 | 180.0 | 410.5 | 650 | 842 | 1000 | suppressed the growth of the tumor |  |  |  | 
C[C@]12C=CC(=O)C=C1CC[C@@H]1[C@@H]2[C@@H](O)C[C@@]2(C)[C@H]1CC[C@]2(O)C(=O)CO [PSL, Prednisolone] |  |  |  |  |  |  |  |  |  |  |  |  |  |  |  |  |  | decreased |  |  | Blood IgE level [1, 3]: 2204 ng/mL; Suppression ratio (blood IgE) [1, 3]: 18.2%
CC(=O)O[C@@]12CO[C@@H]1C[C@H](O)[C@@]1(C)C(=O)[C@H](O)C3=C(C)[C@@H](OC(=O)[C@H](O)[C@@H](NC(=O)OC(C)(C)C)c4ccccc4)C[C@@](O)([C@@H](OC(=O)c4ccccc4)[C@H]21)C3(C)C [DXL, Taxotere] |  |  |  |  |  |  |  |  |  |  |  |  |  |  |  |  |  |  | 138.9 | 149.7 | tumor volume ([2]; 8th day): 132.6 mm^3; tumor volume ([2]; 12th day): 93.9 mm^3; tumor volume ([2]; 15th day): 76.0 mm^3; tumor volume ([2]; 19th day): 70.1 mm^3; tumor volume ([2]; 22nd day): 59.3 mm^3; tumor volume ([2]; 25th day): 58.2 mm^3; tumor volume ([2]; 29th day): 62.3 mm^3; effect on suppression of the growth of the tumor (in words) [2]: significantly suppressed
CC1(C)CCC(C)(C)c2cc(NC(=O)c3ccc(C(=O)O)cc3)ccc21 [TM-411, Tamibarotene] | 136.1 | 169.8 | 201.8 | 312.7 | 452.7 | 953.1 | 1097.4 | suppressed | 15.8 | 33.6 | 171.5 | 196 | 256 | 520 | 600 | 726 | suppressed the growth of the tumor | decreased | 136.4 | 173.6 | tumor volume ([2]; 8th day): 234.1 mm^3; tumor volume ([2]; 12th day): 317.5 mm^3; tumor volume ([2]; 15th day): 359.5 mm^3; tumor volume ([2]; 19th day): 429.9 mm^3; tumor volume ([2]; 22nd day): 451.7 mm^3; tumor volume ([2]; 25th day): 455.7 mm^3; tumor volume ([2]; 29th day): 476.5 mm^3; effect on suppression of the growth of the tumor (in words) [2]: significantly suppressed; tumor volume (human liver cancer HePG2; 5th day): 21.4 mm^3; Blood IgE level ([1]; TM-411 1 mg/kg oral 28 days): 2519 ng/mL; Suppression ratio (blood IgE) ([1]; TM-411 1 mg/kg oral 28 days): 6.5%; Blood IgE level ([1]; TM-411 3 mg/kg oral 28 days): 1755 ng/mL; Suppression ratio (blood IgE) ([1]; TM-411 3 mg/kg oral 28 days): 34.0%
